Columns and labels:
rat C6 glioma cells = experiment: GDNF production promoting action in rat C6 glioma cells (ELISA of culture supernatant); assay type: cell-based; settings: concentration which causes 50% increase of GDNF relative to the control group, cultured 2 days with test compound, GDNF in culture supernatant by ELISA
Experimental: Using rat C6 glioma cells, the GDNF production promoting action of the compound of the present invention was evaluated.
Rat C6 glioma cells (ATCC) were grown in Dulbecco's Modified Eagle's Medium (DMEM) containing 10% FBS (Fetal Bovine Serum) in a collagen type 1 coated 75 cm^2 culture flask (SUMITOMO BAKELITE Co., Ltd.) until near confluent, detached by trypsin treatment and washed once with DMEM containing 10% FBS.
The cells after washing were diluted with 10% FBS-containing DMEM to a concentration of 5×10^4/mL and seeded at 0.3 mL/well in each well of collagen type 1 coated 48 well culture dish (SUMITOMO BAKELITE Co., Ltd.). After 3 days, the culture in the culture dish was placed in a 1% BSA (bovine serum albumin, Sigma)-containing DMEM medium supplemented with various concentrations of test compound, and further cultured for 2 days. The culture supernatant was recovered and preserved at −80° C. until measurement of GDNF.
The content of GDNF in the culture supernatant was measured by the following ELISA Method.
Anti-GDNF antibody (MAB212, R&D) was diluted with TBS (Tris buffered physiological saline: 25 mmol/L Tris-HCl (pH 8.0), 150 mmol/L NaCl) to 2 μg/mL and dispensed at 0.1 mL/well to each well of a 96-well immunoplate. The 96-well immunoplate was incubated overnight at 4° C. and washed once with TBS containing Tween 20 at 0.05% (hereinafter to be abbreviated as TBST). A blocking solution (TBS containing 1% BSA and 5% sucrose) was added at 0.2 mL/well to each well after washing, and the plate was incubated at room temperature for 1 hr., after which each well was washed twice with TBST. The culture supernatant (0.1 mL) of the aforementioned C6 cells was added to each well after washing and the plate was incubated at room temperature for 3 hrs., after which the wells were washed 5 times with TBST. The 500-fold diluted anti-GDNF antibody (G2791, Promega) was added by 0.1 mL to each well after washing, incubated at room temperature for 2 hrs. and washed 5 times with TBST. A 5000-fold diluted horseradish peroxidase-labeled anti-chicken IgY antibody (G1351, Promega) was added at 0.1 mL/well to each well after washing, incubated at room temperature for 2 hrs. and washed 5 times with TBST. A substrate solution (TMB substrate solution, BIO-RAD) was added at 0.1 mL/well to each well after washing and allowed to develop color at room temperature for 8 min. To stop the reaction, 0.1 mL of 1 mol/L phosphoric acid was added to each well in coloring developing reaction. The absorbance of the reaction solution at 450 nm wavelength was measured.
In the same manner as above except the test compound was not used, the ELISA Method was performed and this was used as a control group.
Using various concentrations of GDNF (Promega), ELISA Method was performed in the same manner as above and standard line was prepared.
From the aforementioned absorbance and standard line, GDNF content in a sample was calculated and the concentration (EC50), which causes 50% increase of GDNF relative to the control group was calculated from the regression line.

PC12 cells = experiment: neuroprotective action (neurite network formation) in PC12 cells; assay type: cell-based; settings: test compound 0.3-3.0 μmol/L, two days, DMEM with 0.5% FCS and 2 ng/mL NGF; observed under a microscope
Experimental: Using PC12 cells, the neuroprotective action of the compound of the present invention was evaluated.
PC12 cells were precultured for one day in a DMEM (Dulbecco's Modified Eagle's Medium) culture solution containing 10% FCS (Fetal Calf Serum) in an incubator at 37° C., 5% CO2, and seeded at 5×10^3/well in a 24 well plate (Falcon) in the same medium. After the cells adhered to the bottom surface, the culture was changed to a DMEM culture solution containing 0.5% FCS and 2 ng/mL of NGF (Wako Pure Chemical Industries, Ltd.). After culturing overnight, the test compound was added at a concentration of 0.3-3.0 μmol/L and the cells were cultured for two more days. Gultalaldehyde was added to the cultured to a final concentration of 2% and the cells were fixed for 1 hr., after which stained with a Diff-Quick (International Reagents Corporation). The cells were washed, dried with air and observed under a microscope.

[1] = Rattus norvegicus, C6 glioma, 48 h

| Compound | melting point [°C] | EC50 (rat C6 glioma cells; [1]) [µM] | formation of neurite network (PC12 cells) | EC50 (rat C6 glioma cells) [µM] |
| --- | --- | --- | --- | --- |
| COP(=O)(Cc1ccc(NC(=O)/C=C/c2cnn(C)c2-c2ccc(F)cc2)cc1)OC [Example 1, (2E)-N-[4-(dimethylphosphonomethyl)phenyl]-3-[5-(4-fluorophenyl)-1-methyl-1H-pyrazol-4-yl]acrylamide] | 209 to 210 | 0.2 | – | – |
| CCOP(=O)(Cc1ccc(NC(=O)/C=C/c2cnn(C)c2-c2ccc(F)cc2)cc1)OCC [Example 2, (2E)-N-[4-(Diethylphosphonomethyl)phenyl]-3-[5-(4-fluorophenyl)-1-methyl-1H-pyrazol-4-yl]acrylamide] | – | 0.4 | promoted formation of neurite network | – |
| CCOP(=O)(Cc1ccc(NC(=O)/C=C/c2cnn(C)c2-c2ccc(OC)cc2)cc1)OCC [Example 5, (2E)-N-[4-(Diethylphosphonomethyl)phenyl]-3-[5-(4-methoxyphenyl)-1-methyl-1H-pyrazol-4-yl]acrylamide] | 199 to 200 | 1 | – | – |
| CCOP(=O)(Cc1ccc(NC(=O)/C=C/c2cnn(C)c2-c2ccc(Cl)cc2)cc1)OCC [Example 9, (2E)-3-[5-(4-Chlorophenyl)-1-methyl-1H-pyrazol-4-yl]-N-[4-(diethylphosphonomethyl)phenyl]acrylamide] | 217 to 218 | 2.5 | – | – |
| CCOP(=O)(Cc1ccc(NC(=O)/C=C/c2cnn(C)c2-c2ccccc2)cc1)OCC [Example 11, (2E)-N-[4-(Diethylphosphonomethyl)phenyl]-3-(1-methyl-5-phenyl-1H-pyrazol-4-yl)acrylamide] | 239 to 240 | 0.9 | – | – |
| CCCCC1(CC)COP(=O)(Cc2ccc(NC(=O)/C=C/c3cnn(C)c3-c3ccc(F)cc3)cc2)OC1 (centres unmarked) [Example 27, (2E)-N-{4-[(5-Butyl-5-ethyl-2-oxide-1,3,2-dioxaphosphinan-2-yl)methyl]phenyl}-3-[5-(4-fluorophenyl)-1-methyl-1H-pyrazol-4-yl]acrylamide] | – | – | – | 0.5 |
| Cn1ncc(/C=C/C(=O)Nc2ccc(C(O)c3ccccn3)cc2)c1-c1ccc(F)cc1 (centres unmarked) [Example 49, (2E)-3-[5-(4-Fluorophenyl)-1-methyl-1H-pyrazol-4-yl]-N-{4-[hydroxy(2-pyridinyl)methyl]phenyl}acrylamide] | – | 1.6 | promoted formation of neurite network | – |
| Cc1cccc(C(O)c2ccc(NC(=O)/C=C/c3cnn(C)c3-c3ccc(F)cc3)cc2)n1 (centres unmarked) [Example 50, (2E)-3-[5-(4-Fluorophenyl)-1-methyl-1H-pyrazol-4-yl]-N-{4-[hydroxy(6-methyl-2-pyridinyl)methyl]phenyl}acrylamide] | – | 0.4 | – | – |
| Cn1ncc(/C=C/C(=O)Nc2ccc(CC3SC(=O)NC3=O)cc2)c1-c1ccc(F)cc1 (centres unmarked) [Example 60, (2E)-N-{4-[(2,4-Dioxo-1,3-thiazolidin-5-yl)methyl]phenyl}-3-[5-(4-fluorophenyl)-1-methyl-1H-pyrazol-4-yl]acrylamide] | 149 to 150 | 0.8 | promoted formation of neurite network | – |
| CCOP(=O)(Cc1ccc(NC(=O)/C=C/c2cncn2-c2ccc(F)cc2)cc1)OCC [Example 61, (2E)-N-[4-(Diethylphosphonomethyl)phenyl]-3-[1-(4-fluorophenyl)-1H-imidazol-5-yl]acrylamide] | 165 to 166 | 0.4 | – | – |
| CCOP(=O)(Cc1ccc(NC(=O)/C=C/c2snnc2-c2ccc(F)cc2)cc1)OCC [Example 71, (2E)-N-[4-(Diethylphosphonomethyl)phenyl]-3-[4-(4-fluorophenyl)-1,2,3-thiadiazol-5-yl]acrylamide] | 173 to 175 | 1.7 | – | – |
| Cn1ncc(/C=C/C(=O)Nc2ccc(CCc3cscn3)cc2)c1-c1ccc(F)cc1 [Example 91, (2E)-3-[5-(4-Fluorophenyl)-1-methyl-1H-pyrazol-4-yl]-N-{4-[2-(1,3-thiazol-4-yl)ethyl]phenyl}acrylamide] | 211 to 212 | 0.49 | – | – |
| CN1C(=O)SC(Cc2ccc(NC(=O)/C=C/c3cnn(C)c3-c3ccc(F)cc3)cc2)C1=O (centres unmarked) [Example 110, (2E)-3-[5-(4-Fluorophenyl)-1-methyl-1H-pyrazol-4-yl]-N-{4-[(3-methyl-2,4-dioxo-1,3-thiazolidin-5-yl)methyl]phenyl}acrylamide] | 228 to 229 | 0.31 | promoted formation of neurite network | – |
| CC(=O)Cc1ccc(NC(=O)/C=C/c2cnn(C)c2-c2ccc(F)cc2)cc1 [Example 121, (2E)-3-[5-(4-Fluorophenyl)-1-methyl-1H-pyrazol-4-yl]-N-[4-(2-oxopropyl)phenyl]acrylamide] | 186 to 187 | 0.18 | – | – |
| CCCC(=O)NCc1ccc(NC(=O)/C=C/c2cnn(C)c2-c2ccc(F)cc2)cc1 [Example 140, (2E)-N-{4-[(Butyrylamino)methyl]phenyl}-3-[5-(4-fluorophenyl)-1-methyl-1H-pyrazol-4-yl]acrylamide] | 259 to 260 | 0.22 | – | – |
| CCOP(=O)(Cc1ccc(NC(=O)/C=C/c2cnn(C)c2-c2ccoc2)cc1)OCC [Example 147, Diethyl 4-[{(2E)-3-[5-(3-furyl)-1-methyl-1H-pyrazol-4-yl]prop-2-enoyl)amino]benzylphosphonate] | 208 to 210 | 0.46 | – | – |
| CCOP(=O)(Cc1ccc(NC(=O)/C=C/c2cnn(C)c2-c2cccs2)cc1)OCC [Example 149, Diethyl [4-({(2E)-3-[1-methyl-5-(2-thienyl)-1H-pyrazol-4-yl]prop-2-enoyl}amino)benzyl]phosphonate] | 262 to 263 | 0.51 | promoted formation of neurite network | – |
| Cn1ncc(/C=C/C(=O)Nc2ccc(Cn3ccnc3)cc2)c1-c1ccc(F)cc1 [Example 159, (2E)-3-[5-(4-fluorophenyl)-1-methyl-1H-pyrazol-4-yl]-N-[4-(1H-imidazol-1-ylmethyl)phenyl]acrylamide] | 213 to 214 | 0.12 | promoted formation of neurite network | – |
| Cn1ncc(/C=C/C(=O)Nc2ccc(Cn3cncn3)cc2)c1-c1ccc(F)cc1 [Example 163, (2E)-3-[5-(4-Fluorophenyl)-1-methyl-1H-pyrazol-4-yl]-N-[4-(1H-1,2,4-triazol-1-ylmethyl)phenyl]acrylamide] | 225 to 226 | 0.19 | – | – |
| Cc1nccn1Cc1ccc(NC(=O)/C=C/c2cnn(C)c2-c2ccc(F)cc2)cc1 [Example 190, (2E)-3-[5-(4-Fluorophenyl)-1-methyl-1H-pyrazol-4-yl]-N-{4-[(2-methyl-1H-imidazol-1-yl)methyl]phenyl}acrylamide] | 232 to 233 | 0.59 | – | – |
| Cn1ncc(/C=C/C(=O)Nc2ccc(-n3ccnc3)cc2)c1-c1ccc(F)cc1 [Example 195] | – | – | – | 0.12 |
| (2E)-3-[5-(4-Fluorophenyl)-1-methyl-1H-pyrazol-4-yl]-N-[4-(1-pyrrolidinylmethyl) phenyl]acrylamide [Example 193] | – | – | – | 0.16 |

— patent US7423159B2, “Agent for preventing or treating neuropathy” (Takeda Pharmaceutical Company Limited, priority 2002, dated 2008)
